From ChEMBL document CHEMBL3886339, “mGluR4 allosteric potentiators, compositions, and methods of treating neurological dysfunction” (2015)

Each compound was assayed against Metabotropic glutamate receptor 4 (Homo sapiens, UniProt Q14833).
Format: functional, cell-based, HEK293

Chain of Metabotropic glutamate receptor 4 (Q14833 whole entry): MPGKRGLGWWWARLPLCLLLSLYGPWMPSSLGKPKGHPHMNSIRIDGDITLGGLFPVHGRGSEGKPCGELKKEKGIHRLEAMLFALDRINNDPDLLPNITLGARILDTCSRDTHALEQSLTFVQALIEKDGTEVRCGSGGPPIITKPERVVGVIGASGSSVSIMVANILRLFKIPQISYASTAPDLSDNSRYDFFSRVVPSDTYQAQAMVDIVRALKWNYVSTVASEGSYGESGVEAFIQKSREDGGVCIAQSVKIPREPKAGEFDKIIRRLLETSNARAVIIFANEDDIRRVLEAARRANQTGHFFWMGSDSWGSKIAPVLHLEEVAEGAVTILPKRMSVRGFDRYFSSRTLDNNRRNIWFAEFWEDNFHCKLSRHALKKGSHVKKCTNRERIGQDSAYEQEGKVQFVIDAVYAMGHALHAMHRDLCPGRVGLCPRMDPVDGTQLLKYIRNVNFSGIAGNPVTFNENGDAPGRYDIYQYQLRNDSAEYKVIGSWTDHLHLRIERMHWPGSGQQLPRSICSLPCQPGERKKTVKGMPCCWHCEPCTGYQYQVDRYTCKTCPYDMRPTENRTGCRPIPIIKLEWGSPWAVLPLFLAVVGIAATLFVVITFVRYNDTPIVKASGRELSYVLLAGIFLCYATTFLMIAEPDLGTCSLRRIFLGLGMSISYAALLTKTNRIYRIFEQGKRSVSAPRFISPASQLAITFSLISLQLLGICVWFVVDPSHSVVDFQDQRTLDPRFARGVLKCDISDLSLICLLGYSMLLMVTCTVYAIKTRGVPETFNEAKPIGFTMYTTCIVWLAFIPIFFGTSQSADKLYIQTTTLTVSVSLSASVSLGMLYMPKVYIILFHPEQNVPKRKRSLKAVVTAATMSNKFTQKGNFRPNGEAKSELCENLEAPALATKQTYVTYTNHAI

EC50 [µM] | SMILES
0.234 | O=C(Nc1cnn(S(=O)(=O)c2cc(F)c(F)c(F)c2)c1)c1ccccn1
1.77 | O=C(Nc1cnn(S(=O)(=O)c2cc(F)c(F)cc2F)c1)c1ccccn1
0.128 | O=C(Nc1cnn(S(=O)(=O)c2ccc(Cl)cc2F)c1)c1ccccn1
0.151 | Cc1cc(S(=O)(=O)n2cc(NC(=O)c3ccccn3)cn2)ccc1Cl
0.324 | Cc1ccc(S(=O)(=O)n2cc(NC(=O)c3nccs3)cn2)cc1
0.138 | O=C(Nc1cnn(S(=O)(=O)c2ccc(F)c(Cl)c2)c1)c1ccccn1
4.16 | O=C(Nc1cnn(S(=O)(=O)c2ccc(F)c(F)c2)c1)c1nccs1
0.137 | Cc1ccc(S(=O)(=O)n2cc(NC(=O)c3ccccn3)cn2)cc1F
0.266 | O=C(Nc1cnn(S(=O)(=O)c2ccc(C(F)(F)F)cc2)c1)c1ccccn1
1.17 | O=C(Nc1cnn(S(=O)(=O)c2cc(F)c(F)cc2Cl)c1)c1ccccn1
3.91 | O=C(Nc1cnn(S(=O)(=O)c2ccc(Cl)c(F)c2)c1)c1ccccn1
1.74 | O=C(Nc1cnn(S(=O)(=O)c2ccc(F)c(F)c2)c1)c1ccccn1
0.144 | Cc1ccc(S(=O)(=O)n2cc(NC(=O)c3ccccn3)cn2)cc1C
0.282 | O=C(Nc1cnn(S(=O)(=O)c2ccc(F)c(F)c2F)c1)c1ccccn1
0.17 | COc1ccc(S(=O)(=O)n2cc(NC(=O)c3ccccn3)cn2)cc1
0.234 | Cc1cccc(S(=O)(=O)n2cc(NC(=O)c3nccs3)cn2)c1
0.163 | Cc1cccc(S(=O)(=O)n2cc(NC(=O)c3ccccn3)cn2)c1
0.197 | O=C(Nc1cnn(S(=O)(=O)c2cc(Cl)ccc2Cl)c1)c1ccccn1
0.26 | COc1ccc(S(=O)(=O)n2cc(NC(=O)c3ccccn3)cn2)cc1Cl
9.88 | Cc1ccc(S(=O)(=O)n2cc(NC(=O)c3ccccn3)cn2)cc1
0.248 | CCc1ccc(S(=O)(=O)n2cc(NC(=O)c3ccccn3)cn2)cc1
0.486 | Cc1ccc(S(=O)(=O)n2cc(NC(=O)c3ccccn3)cn2)c(C)c1
1.62 | O=C(Nc1cnn(S(=O)(=O)c2ccc(F)cc2F)c1)c1ccccn1
0.204 | O=C(Nc1cnn(S(=O)(=O)c2ccc(Cl)c(Cl)c2)c1)c1ccccn1
0.124 | Cc1cc(S(=O)(=O)n2cc(NC(=O)c3ccccn3)cn2)ccc1F
2.34 | Cc1cc(F)ccc1S(=O)(=O)n1cc(NC(=O)c2ccccn2)cn1
2.25 | O=C(Nc1cnn(S(=O)(=O)c2cc(Cl)ccc2F)c1)c1ccccn1
5.24 | O=C(Nc1cnn(S(=O)(=O)c2cccc(Cl)c2F)c1)c1ccccn1
0.652 | Cc1ccc(S(=O)(=O)n2cc(NC(=O)c3nccs3)cn2)cc1C
